From patent US20110124606A1, “SENSE-IMPROVING AGENT” (SNOW BRAND MILK PRODUCTS CO., LTD., priority 2007, published 2011)

Columns and labels:
[1] = system: PC-12 cells; assay: Cell differentiation-promoting activity: PC-12 cells cultured in culture supernatant of treated 3T3 cells; type: cell-based; conditions: supernatant of 3T3 cells cultured two days with 200 μg/l
Experimental: 3T3 cells, which is fibroblast cell strain known to be present in skin, were cultured for two days under the condition that the milk-derived phospholipid-containing composition of Example 1 or 2 was added at a concentration of 200 μg/l (Example 1: Group A, Example 2: Group B). As a control, 3T3 cells were cultured for two days without adding the milk-derived phospholipid-containing composition obtained in Example 1 or 2 (Group C). PC-12 cells (nerve model cells) were cultured using the culture supernatant thereof, and morphological differentiation of the PC-12 cells was observed. […] It was confirmed that 95% or more of the cells were differentiated when using the culture supernatant of the group A or B. On the other hand, the PC-12 cells were not differentiated when using the culture supernatant of the group C. No differentiation was observed through an optical microscope even though the experiment was repeated several times. It was thus confirmed that the milk-derived phospholipid-containing compositions obtained in Examples 1 and 2 promote differentiation of the PC-12 cells which was nerve model cells.
3T3 cells, which is fibroblast cell strain known to be present in skin, were cultured for two days under the condition that the sphingomyelin obtained in Example 3 was added at a concentration of 200 μg/l (group A). […]

[2] = system: Healthy elderly persons who suffered deterioration in sensation in the hands; assay: Pain sensation in palm and foot by Algesiometer, oral intake of sphingomyelin (Test Example 5); type: in vivo, human; conditions: for Hand Foot bottom sensation measurement (before intake): Average value / Hand sensation measurement (before intake): Average value / Hand Foot bottom sensation measurement (after intake for 12 weeks): Average value / Hand sensation measurement (after intake for 12 weeks): Average value: Normal 0 to Deterioration III 3 points; for Hand Foot bottom sensation measurement (before intake): Deterioration I / Hand Foot bottom sensation measurement (before intake): Deterioration II / Hand Foot bottom sensation measurement (before intake): Deterioration III / Hand Foot bottom sensation measurement (before intake): Normal / Hand sensation measurement (before intake): Deterioration I / Hand sensation measurement (before intake): Deterioration II / Hand sensation measurement (before intake): Deterioration III / Hand sensation measurement (before intake): Normal / Hand Foot bottom sensation measurement (after intake for 12 weeks): Deterioration I / Hand Foot bottom sensation measurement (after intake for 12 weeks): Deterioration II / Hand Foot bottom sensation measurement (after intake for 12 weeks): Deterioration III / Hand Foot bottom sensation measurement (after intake for 12 weeks): Normal / Hand sensation measurement (after intake for 12 weeks): Deterioration I / Hand sensation measurement (after intake for 12 weeks): Deterioration II / Hand sensation measurement (after intake for 12 weeks): Deterioration III / Hand sensation measurement (after intake for 12 weeks): Normal: subjects per criterion, 15 per group; for sensation in the palm and the bottom of the foot (in words): 12 weeks
Experimental: The pain sensation was evaluated using five pins that differ in thickness in combination with five fulcrum positions. The thinnest pin 1 was rolled along the medial side of the arm, and the subject was asked about the degree of normal pain sensation. The pin 1 was then rolled along the palm and the bottom of the foot while sequentially changing the holder fulcrum position to determine the fulcrum position at which the same pain sensation degree as the first pain sensation occurred. The Algesiometer is designed so that the pain sensations with same degree occur between when rolling the pin 1 (fulcrum: 50 g) along the medial side of the arm and when rolling the pin 2 (fulcrum: 50 g) along the palm. The pain sensation was evaluated as follows in accordance with the instruction manual. The pain sensation was evaluated by points, and the average points were calculated. Normal (0 points): The same pain sensation occurred when rolling the pin 2 (fulcrum: 50 g). Deterioration I (1 point): The same pain sensation occurred when rolling the pin 1 (fulcrum: 50 g). Deterioration II (2 points): The same pain sensation occurred when rolling the pin 1 (fulcrum: 60 g): Deterioration III (3 points): The same pain sensation occurred when rolling the pin 1 (fulcrum: 70 g): Healthy elderly persons (average age: 75±3) who suffered deterioration in sensation in the hands were divided into three groups (one group: 15 subjects). The subjects took the sphingomyelin obtained in Example 4 in an amount of 0 mg, 4 mg, or 8 mg for 12 weeks. The pain sensation in the palm and the arch of the foot was measured with 4 criteria (normal, deteriorations I, II, and III) before the intake and after the intake for 12 weeks with reference to the pain sensation in the medial side of the arm using a pain/touch-pressure sensation measuring device (“Algesiometer” manufactured by Intercross Ltd.) in accordance with the instruction manual. After the intake for 12 weeks, a questionnaire survey on improvement in sensation in the hands was carried out to each elderly person. The measurement method and the evaluation method are the same as those employed in Test Example 4.

[3] = system: Healthy elderly persons who suffered deterioration in sensation in the hands; assay: Questionnaire survey on improvement in sensation, oral intake of sphingomyelin (Test Example 5); type: in vivo, human; conditions: subjects of 15
Experimental: Healthy elderly persons (average age: 75±3) who suffered deterioration in sensation in the hands were divided into three groups (one group: 15 subjects). The subjects took the sphingomyelin obtained in Example 4 in an amount of 0 mg, 4 mg, or 8 mg for 12 weeks. The pain sensation in the palm and the arch of the foot was measured with 4 criteria (normal, deteriorations I, II, and III) before the intake and after the intake for 12 weeks with reference to the pain sensation in the medial side of the arm using a pain/touch-pressure sensation measuring device (“Algesiometer” manufactured by Intercross Ltd.) in accordance with the instruction manual. After the intake for 12 weeks, a questionnaire survey on improvement in sensation in the hands was carried out to each elderly person. The measurement method and the evaluation method are the same as those employed in Test Example 4.

For sphingomyelin [Example 3], the “morphological differentiation of PC-12 cells” value [1] was “highly differentiated” and the “differentiation rate of PC-12 cells” value ([1]; optical microscope) was no less than 94%.
In the case of sphingomyelin [Example 4], the “Hand Foot bottom sensation measurement (before intake): Average value” ([2]; 4 mg group) is reported as 2.1 points, the “Hand sensation measurement (before intake): Average value” ([2]; 4 mg group) is reported as 2.1 points and the “Hand Foot bottom sensation measurement (before intake): Deterioration I” value ([2]; 4 mg group) is reported as 3. The “Hand Foot bottom sensation measurement (before intake): Deterioration II” value ([2]; 4 mg group) was 7, the “Hand Foot bottom sensation measurement (before intake): Deterioration III” value ([2]; 4 mg group) was 5 and the “Hand Foot bottom sensation measurement (before intake): Normal” value ([2]; 4 mg group) was 0. The “Hand sensation measurement (before intake): Deterioration I” value ([2]; 4 mg group) was 3, the “Hand sensation measurement (before intake): Deterioration II” value ([2]; 4 mg group) was 7 and the “Hand sensation measurement (before intake): Deterioration III” value ([2]; 4 mg group) was 5. The “Hand sensation measurement (before intake): Normal” value ([2]; 4 mg group) was 0, the “Hand Foot bottom sensation measurement (before intake): Average value” ([2]; 8 mg group) was 2.3 points and the “Hand sensation measurement (before intake): Average value” ([2]; 8 mg group) was 2.3 points. For the same substance, the “Hand Foot bottom sensation measurement (before intake): Deterioration I” value ([2]; 8 mg group) was 2, the “Hand Foot bottom sensation measurement (before intake): Deterioration II” value ([2]; 8 mg group) was 7 and the “Hand Foot bottom sensation measurement (before intake): Deterioration III” value ([2]; 8 mg group) was 6. For the same substance, the “Hand Foot bottom sensation measurement (before intake): Normal” value ([2]; 8 mg group) was 0, the “Hand sensation measurement (before intake): Deterioration I” value ([2]; 8 mg group) was 2 and the “Hand sensation measurement (before intake): Deterioration II” value ([2]; 8 mg group) was 6. For the same substance, the “Hand sensation measurement (before intake): Deterioration III” value ([2]; 8 mg group) was 7, the “Hand sensation measurement (before intake): Normal” value ([2]; 8 mg group) was 0 and the “sensation in the palm and the bottom of the foot (in words)” value ([2]; intake 4 mg) was “tended to be improved”. For the same substance, the “Hand Foot bottom sensation measurement (after intake for 12 weeks): Average value” ([2]; intake 4 mg) was 1.7 points, the “Hand sensation measurement (after intake for 12 weeks): Average value” ([2]; intake 4 mg) was 1.5 points and the “Hand Foot bottom sensation measurement (after intake for 12 weeks): Deterioration I” value ([2]; intake 4 mg) was 5. The “Hand Foot bottom sensation measurement (after intake for 12 weeks): Deterioration II” value ([2]; intake 4 mg) was 7, the “Hand Foot bottom sensation measurement (after intake for 12 weeks): Deterioration III” value ([2]; intake 4 mg) was 2 and the “Hand Foot bottom sensation measurement (after intake for 12 weeks): Normal” value ([2]; intake 4 mg) was 1. The “Hand sensation measurement (after intake for 12 weeks): Deterioration I” value ([2]; intake 4 mg) was 5, the “Hand sensation measurement (after intake for 12 weeks): Deterioration II” value ([2]; intake 4 mg) was 6 and the “Hand sensation measurement (after intake for 12 weeks): Deterioration III” value ([2]; intake 4 mg) was 2. The “Hand sensation measurement (after intake for 12 weeks): Normal” value ([2]; intake 4 mg) was 2, the “sensation in the palm and the bottom of the foot (in words)” value ([2]; intake 8 mg) was “significantly improved” and the “Hand Foot bottom sensation measurement (after intake for 12 weeks): Average value” ([2]; intake 8 mg) was 1.6 points. The “Hand sensation measurement (after intake for 12 weeks): Average value” ([2]; intake 8 mg) was 1.3 points, the “Hand Foot bottom sensation measurement (after intake for 12 weeks): Deterioration I” value ([2]; intake 8 mg) was 7 and the “Hand Foot bottom sensation measurement (after intake for 12 weeks): Deterioration II” value ([2]; intake 8 mg) was 4. For the same substance, the “Hand Foot bottom sensation measurement (after intake for 12 weeks): Deterioration III” value ([2]; intake 8 mg) was 3, the “Hand Foot bottom sensation measurement (after intake for 12 weeks): Normal” value ([2]; intake 8 mg) was 1 and the “Hand sensation measurement (after intake for 12 weeks): Deterioration I” value ([2]; intake 8 mg) was 7. The “Hand sensation measurement (after intake for 12 weeks): Deterioration II” value ([2]; intake 8 mg) was 3, the “Hand sensation measurement (after intake for 12 weeks): Deterioration III” value ([2]; intake 8 mg) was 2 and the “Hand sensation measurement (after intake for 12 weeks): Normal” value ([2]; intake 8 mg) was 3. The “Foot sensation: Improved” value ([3]; intake 4 mg for 12 weeks) was 5, the “Foot sensation: Same” value ([3]; intake 4 mg for 12 weeks) was 9 and the “Foot sensation: Worsened” value ([3]; intake 4 mg for 12 weeks) was 1. For the same substance, the “Hand sensation: Improved” value ([3]; intake 4 mg for 12 weeks) was 6, the “Hand sensation: Same” value ([3]; intake 4 mg for 12 weeks) was 7 and the “Hand sensation: Worsened” value ([3]; intake 4 mg for 12 weeks) was 2. The “Foot sensation: Improved” value ([3]; intake 8 mg for 12 weeks) was 8, the “Foot sensation: Same” value ([3]; intake 8 mg for 12 weeks) was 7 and the “Foot sensation: Worsened” value ([3]; intake 8 mg for 12 weeks) was 0. For the same substance, the “Hand sensation: Improved” value ([3]; intake 8 mg for 12 weeks) was 10, the “Hand sensation: Same” value ([3]; intake 8 mg for 12 weeks) was 4 and the “Hand sensation: Worsened” value ([3]; intake 8 mg for 12 weeks) was 1.
